Target: T1, human 5HT2c receptor (VNV Isoform) (Homo sapiens, UniProt P28335, I156V/I160V)
T1 construct: expressed in transfected cells; host or cells: HEK 293 EBNA
T1 sequence (P28335 33-458 I156V/I160V): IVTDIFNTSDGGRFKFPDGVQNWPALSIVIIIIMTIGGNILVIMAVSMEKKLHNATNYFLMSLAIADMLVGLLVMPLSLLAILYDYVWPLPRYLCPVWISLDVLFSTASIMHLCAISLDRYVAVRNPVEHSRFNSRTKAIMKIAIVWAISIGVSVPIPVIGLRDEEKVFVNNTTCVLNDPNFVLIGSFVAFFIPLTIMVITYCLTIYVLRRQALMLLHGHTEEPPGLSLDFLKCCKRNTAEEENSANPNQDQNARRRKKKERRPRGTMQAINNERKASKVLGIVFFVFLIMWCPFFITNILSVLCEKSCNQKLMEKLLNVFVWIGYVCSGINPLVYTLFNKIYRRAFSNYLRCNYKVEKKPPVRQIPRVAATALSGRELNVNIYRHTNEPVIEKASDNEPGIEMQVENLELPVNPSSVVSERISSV
Test: Calcium mobilization (FLIPR) 5HT2c receptor agonist assay
Format: cell-based
Settings: HEK 293 EBNA cells expressing human 5HT2c receptor (VNV isoform), agonist-induced calcium fluorescence, read-out: 5-HT2c EC50 (hVNV)
Protocol: The following procedure was utilized to evaluate representative compounds of the present invention as 5HT2c, receptor agonists.
5HT was utilized as a positive control. Ligand-induced calcium release and consequent fluorescence was measured on a Fluorometric Imaging Plate Reader (FLIPR, Molecular Device, CA).
All data were analyzed by nonlinear least square curve fitting using Prism 4.0 software. Agonist stimulation of calcium-induced fluorescence in FLIPR was fitted to sigmoidal dose response using equation Y=Bottom+(Top−Bottom)/(1+10^((Log EC50−X))), where X is the logarithm of concentration of compounds and Y is the fluorescent response.

Row | EC50 [nM] | Compound
1 | < 10 | CC(c1cc2c(s1)CCNCC2)C(F)(F)F (racemic) [Example 4, (R,S)-2-(2,2,2-Trifluoro-1-methyl-ethyl)-5,6,7,8-tetrahydro-4H-thieno[2,3-d]azepine]
2 | < 10 | FC(F)(F)C1CCc2c1sc1c2CCNCC1 (racemic) [Example 6, (R,S)-1-Trifluoromethyl-1,2,3,4,5,6,7,8-octahydro-9-thia-6-aza-cyclopenta[a]azulene]
3 | < 1000 | CC1(C)CC(C(F)(F)F)c2sc3c(c21)CCNCC3 (racemic) [Example 7, (R,S)-3,3-Dimethyl-1-trifluoromethyl-1,2,3,4,5,6,7,8-octahydro-9-thia-6-aza-cyclopenta[a]azulene]
4 | < 100 | CC1CNCCc2sc(C(=O)C(C)(C)C)cc21 (racemic) [Example 11, (R,S)-2,2-Dimethyl-1-(4-methyl-5,6,7,8-tetrahydro-4H-thieno[2,3-d]azepin-2-yl)-propan-1-one]
5 | < 100 | CC1CNCCc2sc3c(c21)C(C)(C)CC3C(F)(F)F (single isomer, unassigned) [17 Diastereomer 1]
6 | < 1000 | CC1CNCCc2sc3c(c21)C(C)(C)CC3C(F)(F)F (single isomer, unassigned) [17 Diastereomer 2]
7 | < 100 | CC1CNCCc2sc(CC(F)(F)F)c(Br)c21 (single isomer, unassigned) [Example 9, 3-Bromo-4-methyl-2-(2,2,2-trifluoro-ethyl)-5,6,7,8-tetrahydro-4H-thieno[2,3-d]azepine]
8 | < 100 | CCS(=O)(=O)c1sc2c(c1C)C(C)CNCC2 (single isomer, unassigned) [Example 10, 2-Ethanesulfonyl-3,4-dimethyl-5,6,7,8-tetrahydro-4H-thieno[2,3-d]azepine]
9 | < 100 | CC1CNCCc2sc(C(=O)C(C)(C)C)c(Br)c21 (single isomer, unassigned) [Example 12, 1-(3-Bromo-4-methyl-5,6,7,8-tetrahydro-4H-thieno[2,3-d]azepin-2-yl)-2,2-dimethyl-propan-1-one]
10 | < 100 | CC1CNCCc2sc3c(c21)CCC3C(F)(F)F (single isomer, unassigned) [Example 16, 4-Methyl-1-trifluoromethyl-1,2,3,4,5,6,7,8-octahydro-9-thia-6-aza-cyclopenta[a]azulene]
11 | < 100 | Cc1c(C(=O)C(C)(C)C)sc2c1CCNCC2 [Example 1, 2,2-Dimethyl-1-(3-methyl-5,6,7,8-tetrahydro-4H-thieno[2,3-d]azepin-2-yl)-propan-1-one]
12 | < 10 | FC(F)(F)Cc1sc2c(c1Br)CCNCC2 [Example 2, 3-Bromo-2-(2,2,2-trifluoro-ethyl)-5,6,7,8-tetrahydro-4H-thieno[2,3-d]azepine]
13 | < 10 | O=S(=O)(c1ccccc1)c1cc2c(s1)CCNCC2 [Example 3, 2-Benzenesulfonyl-5,6,7,8-tetrahydro-4H-thieno[2,3-d]azepine]
14 | < 10 | CCS(=O)(=O)c1cc2c(s1)CCNCC2 [Example 5, 2-Ethanesulfonyl-5,6,7,8-tetrahydro-4H-thieno[2,3-d]azepine]
15 | < 100 | CC(C)(c1cc2c(s1)CCNCC2)C(F)(F)F [Example 8, 2-(2,2,2-Trifluoro-1,1-dimethyl-ethyl)-5,6,7,8-tetrahydro-4H-thieno[2,3-d]azepine]
16 | < 10 | CC(C)(C)C(=O)c1cc2c(s1)CCNCC2 [Example 18, 2,2-Dimethyl-1-(5,6,7,8-tetrahydro-4H-thieno[2,3-d]azepin-2-yl)-propan-1-one]
17 | < 100 | CC(C)(C)C(=O)c1sc2c(c1Cl)CCNCC2 [Example 19, 1-(3-Chloro-5,6,7,8-tetrahydro-4H-thieno[2,3-d]azepin-2-yl)-2,2-dimethyl-propan-1-one]

Row | Compound | EC50 [nM]
18 | FC(F)(F)Cc1sc2c3c1CCC3CNCC2 (racemic) [Example 13, (R,S)-2-(2,2,2-Trifluoro-ethyl)-4,4a,5,6,7,8-hexahydro-3H-1-thia-6-aza-cyclopenta[cd]azulene] | < 100
19 | CC1(C)CC2CNCCc3sc(Br)c1c32 (racemic) [Example 14, (R,S)-2-Bromo-3,3-dimethyl-4,4a,5,6,7,8-hexahydro-3H-1-thia-6-aza-cyclopenta[cd]azulene] | < 1000
20 | CC1Cc2cc(Br)sc2CCN1 (racemic) [Example 15, (R,S)-2-Bromo-5-methyl-5,6,7,8-tetrahydro-4H-thieno[2,3-d]azepine] | < 1000
